The record followed here is ChEMBL document CHEMBL1146253, “A distal methyl substituent attenuates mitochondrial protein synthesis inhibition in oxazolidinone antibacterials” (Bioorg Med Chem Lett, 2007).

Broadly, the MIC90 is an inhibitory concentration at the 90% level, which refers to growth in some studies and to a panel of isolates in others. A high value points to weaker potency. For orientation: IC50 means the point on the concentration scale where inhibition reaches its midpoint. Low readings indicate greater potency in that assay, high ones weaker potency in that assay.

Common to all, as to assay type: functional
For test [1], the system named is Enterococcus faecalis. Nature of the test: Antibacterial activity against Enterococcus faecalis by broth microdilution method. In general terms: In broth dilution the organism is exposed to a series of concentrations in liquid medium.
In test [2] the test system is Streptococcus pneumoniae. Nature of the test: Antibacterial activity against Streptococcus pneumoniae by broth microdilution method.
Test [3] concerns Staphylococcus aureus. Nature of the test: Antibacterial activity against Staphylococcus aureus by broth microdilution method.
In test [4] the test system is Escherichia coli. Nature of the test: Intrinsic binding affinity to Escherichia coli ribosmes by TnT assay.

≈ marks a conversion by molar mass, not a printed value.

Consider `CC(=O)NC[C@H]1CN(c2cc(F)c(N3CC(F)C3)c(F)c2)C(=O)O1`, for which the MIC90 was 2 mg/L (≈ 5.83 µM) in test [1], 1 mg/L (≈ 2.91 µM) in test [2] and 2 mg/L (≈ 5.83 µM) in test [3]. For the same compound, the IC50 in test [4] was 1.4 µM.
For the compound `CC(=O)NC[C@H]1CN(c2cc(F)c(N3CC(C)(O)C3)c(F)c2)C(=O)O1`, the MIC90 turned out to be 4 mg/L (≈ 11.3 µM) in test [1], 1 mg/L (≈ 2.81 µM) in test [2] and 4 mg/L (≈ 11.3 µM) in test [3]. In test [4], the IC50 turned out to be 3.4 µM.
`CC(=O)NC[C@H]1CN(c2ccc(N3CCOCC3)c(F)c2)C(=O)O1` [LINEZOLID]: the MIC90 was 4 mg/L (≈ 11.9 µM) in test [1], 1 mg/L (≈ 2.96 µM) in test [2] and 4 mg/L (≈ 11.9 µM) in test [3].
In the case of `CC(=O)NC[C@H]1CN(c2cc(F)c(N3CC(C)(F)C3)c(F)c2)C(=O)O1`, the MIC90 in test [1] was 2 mg/L (≈ 5.6 µM); in test [2], 1 mg/L (≈ 2.8 µM); in test [3], 4 mg/L (≈ 11.2 µM). For the same compound, the IC50 in test [4] came to 2.3 µM.
For `CC(=O)NC[C@H]1CN(c2cc(F)c(N3CC(O)(C(F)(F)F)C3)c(F)c2)C(=O)O1`, in that order: 2 mg/L (≈ 4.89 µM), 2 mg/L (≈ 4.89 µM), 4 mg/L (≈ 9.77 µM) and 2.4 µM.
The matching figures for `CCC1(O)CCN(c2c(F)cc(N3C[C@H](CNC(C)=O)OC3=O)cc2F)CC1`: 2 mg/L (≈ 5.03 µM), 1 mg/L (≈ 2.52 µM), 4 mg/L (≈ 10.1 µM) and 2.1 µM.
For `CC(=O)NC[C@H]1CN(c2cc(F)c(N3CCC(O)CC3)c(F)c2)C(=O)O1`, in that order: 2 mg/L (≈ 5.41 µM), 1 mg/L (≈ 2.71 µM), 2 mg/L (≈ 5.41 µM) and 1.7 µM.
Consider `CC(=O)NC[C@H]1CN(c2cc(F)c(N3CCC(C)(O)CC3)c(F)c2)C(=O)O1`, for which the results for the MIC90 in test [1], in test [2] and in test [3] were 2 mg/L (≈ 5.22 µM), 1 mg/L (≈ 2.61 µM) and 4 mg/L (≈ 10.4 µM), respectively. In test [4], the IC50 turned out to be 2.1 µM.
For `COC1CN(c2c(F)cc(N3C[C@H](CNC(C)=O)OC3=O)cc2F)C1`, in that order: 2 mg/L (≈ 5.63 µM), 1 mg/L (≈ 2.81 µM), 2 mg/L (≈ 5.63 µM) and 2.6 µM.
For `CC(=O)NC[C@H]1CN(c2cc(F)c(N3CC(O)C3)c(F)c2)C(=O)O1`, in that order: 2 mg/L (≈ 5.86 µM), 1 mg/L (≈ 2.93 µM), 2 mg/L (≈ 5.86 µM) and 1.9 µM.
Regarding `CC(=O)NC[C@H]1CN(c2cc(F)c(N3CCC(C)(CC#N)CC3)c(F)c2)C(=O)O1`, the MIC90 in test [1] is 1 mg/L (≈ 2.46 µM); in test [2], 1 mg/L (≈ 2.46 µM); in test [3], 2 mg/L (≈ 4.92 µM).
In the case of `CCC1(O)CN(c2c(F)cc(N3C[C@H](CNC(C)=O)OC3=O)cc2F)C1`, the results for the MIC90 in test [1], in test [2] and in test [3] were 2 mg/L (≈ 5.41 µM), 2 mg/L (≈ 5.41 µM) and 4 mg/L (≈ 10.8 µM), respectively. The same compound showed an IC50 in test [4] of 2.7 µM.
For `CC(=O)NC[C@H]1CN(c2cc(F)c(N3CCC(CC#N)CC3)c(F)c2)C(=O)O1`, the MIC90 in test [1] came out at 1 mg/L (≈ 2.55 µM); in test [2], 1 mg/L (≈ 2.55 µM); in test [3], 2 mg/L (≈ 5.1 µM). Besides, the IC50 in test [4] worked out at 1.6 µM.
In the case of `COC1(C)CN(c2c(F)cc(N3C[C@H](CNC(C)=O)OC3=O)cc2F)C1`, the MIC90 in test [1] came out at 4 mg/L (≈ 10.8 µM); in test [2], 1 mg/L (≈ 2.71 µM); in test [3] it was 4 mg/L (≈ 10.8 µM). The same compound returned an IC50 in test [4] of 3.7 µM.
